In PubChem BioAssay (NCI):
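Method: 48-hour compound exposure of cells in 96-well plates, five concentrations, linear interpolation of endpoints. GI50 = concentration required for 50% inhibition of growth. TGI: total growth inhibition.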

What was measured:
Experiment in all cases: NCI anticancer screen, dose series, 48 h
[1] = tested on: UO-31 renal
[2] = tested on: XF 498 CNS
[3] = tested on: MOLT-4 leukemia
[4] = tested on: COLO 205 colon
[5] = tested on: OVCAR-5 ovarian
[6] = tested on: UACC-257 melanoma
[7] = tested on: IGROV1 ovarian
[8] = tested on: SNB-19 CNS
[9] = tested on: T-47D breast
[10] = tested on: TK-10 renal

| SMILES | TGI [1] [µM] | TGI [2] [µM] | TGI [3] [µM] | TGI [4] [µM] | TGI [5] [µM] | TGI [6] [µM] | TGI [7] [µM] | TGI [8] [µM] | TGI [9] [µM] | TGI [10] [µM] | GI50 [1] [µM] | GI50 [3] [µM] | GI50 [4] [µM] | GI50 [9] [µM] | GI50 [5] [µM] | GI50 [6] [µM] | GI50 [10] [µM] | GI50 [7] [µM] | GI50 [8] [µM] |
| --- | --- | --- | --- | --- | --- | --- | --- | --- | --- | --- | --- | --- | --- | --- | --- | --- | --- | --- | --- |
| COc1ccc2c3c1OC1CC(O)C=CC31CCN(C)C2 (stereo not given) | > 150 | > 150 | > 150 | > 150 | > 150 | > 150 | > 150 | > 150 |  |  |  |  |  |  |  |  |  |  |  |
| CCCC/C=C1\CCC(CN2CCCCC2)C1=O (stereo not given) | 47.7 | 6.58 | 18.4 | 29 | 49.9 | 42 | 36.7 | 49.4 | > 100 | 28.1 |  |  |  |  |  |  |  |  |  |
| CCOC(=O)/C(O)=C1\C(=O)N(C)C(=O)C1c1ccc(OC)c(OC)c1 (stereo not given) | > 100 | > 100 | > 100 | > 100 | > 100 | > 100 | > 100 | > 100 |  |  |  |  |  |  |  |  |  |  |  |
| O=C(Nc1ccccc1F)c1c(O)nc2sccn2c1=O | > 10 |  | > 10 | > 10 | > 10 |  | > 10 | > 10 | > 10 | > 10 |  |  |  |  |  |  |  |  |  |
| O=C1C(Br)=CC2([N+](=O)[O-])CCNc3c(O)c4c5c(c3C2=C1Br)=NCCC=5C=N4 (stereo not given) | 22.9 | 5.48 |  | 0.133 | 2.39 | 0.887 | 4.27 | 9.72 |  |  |  |  |  |  |  |  |  |  |  |
| COc1ccc2[nH]c(C(=O)N3CC(CCl)c4ccc(N)cc43)cc2c1 (stereo not given) |  |  | > 100 |  | > 30.1 |  |  | > 44.5 | > 100 | > 100 |  |  |  |  |  |  |  |  |  |
| COC(=O)/C=C\Sc1ccn(/C=C\C(=O)OC)c(=S)n1 | 50.5 |  |  | > 100 | > 100 | > 100 | 35.2 | 41.6 | 46.1 | 51.1 |  |  |  |  |  |  |  |  |  |
| O=C(CCCn1cnc([N+](=O)[O-])n1)NCCn1ccnc1[N+](=O)[O-] | > 100 |  | > 100 | > 100 | > 100 | > 100 | > 100 |  | > 100 | > 100 |  |  |  |  |  |  |  |  |  |
| CC1(C)OP23(NC(=O)OC2(C(F)(F)F)c2ccccc2O3)OC1(C)C (stereo not given) | > 100 | > 100 | > 100 |  |  | > 100 |  | > 100 |  | > 100 |  |  |  |  |  |  |  |  |  |
| CC(=O)O[C@H]1CC[C@@]2(C)C(=CC[C@@H]3[C@@H]2CC[C@]2(C)C(c4cccnc4)=CC[C@@H]32)C1 | > 100 |  | > 100 | > 100 | > 100 | > 100 | > 100 | > 100 | 55.7 | > 100 | 5.47 | 6.3 | 5.1 | 2.81 | 18.7 | 28.1 | 29.8 | 26.7 | 24.1 |
| N/N=C(\C(=O)Nc1c(Cl)cc([N+](=O)[O-])cc1Cl)C(c1cnc2ccc([N+](=O)[O-])cc2n1)[N+](=O)[O-] (stereo not given) | > 100 | > 100 | > 100 | > 100 | > 100 | > 100 | > 100 | > 100 |  | > 100 |  |  |  |  |  |  |  |  |  |
